Source: US4735953A, “Pharmaceutical preparation for learning stimulation and memory improvement” (priority 1986, dated 1988)

What was measured:
[1] = system: learning ability of rats preliminarily sorted out for poor learning ability; assay: Active avoidance learning in a shuttle chamber, rats sorted out for poor learning ability; format: in vivo, rat; settings: poorly learning rats, hypodermally 100 mg/kg
Source text: (§1) In these experiments rats are taught to avoid an electric shock by escaping into a next chamber communicating with the first chamber by means of a special opening--a door. An electric current is applied to the chamber door consisting of metal plates. A conditional irritator is a light signal together with a sound click. The learning series consisted of 50 combinations. The number of combinations necessary for the animal's learning to escape into another chamber in response to the conditional signal was determined. Five correct responses out of 6 where regarded as the proof of stability of the acquired knowledge and were denoted as a "learning criterion". After 7 days the educational procedure was repeated, and again the number of combinations necessary to acquire the "learning criterion" was determined. In the case of difference between the first and second readings the percentage of retention of the acquired knowledge was calculated.
(§2) In this experiment the effect of the preparation according to the present invention and prior art preparations was separately evaluated for the purpose of comparison on well-learning and on specially selected poorly learning rats. […] To the poorly learning rats the animals were assigned which reached no "learning criterion" in the teaching series of 50 combinations, or, in other words, a stable knowledge of active avoidance was not worked out in them. […] The preparation according to the present invention and the prior art comparison preparations were administered before the first teaching series or thereafter.
(§3) Also studied were the effects produced upon a single and repeated administration of the preparation according to the present invention for 14 days.

[2] = system: learning ability of mice in a shuttle chamber; assay: Learning ability of mice in a shuttle chamber; format: in vivo, mouse; settings: mice
[3] = system: cerebral cortex of rabbits; assay: Asymmetry factor by induced potential in the hearing zone of the cerebral cortex; format: in vivo, rabbit
Protocol: (§4) In the third series of experiments the effect of the preparation according to the present invention on the functional brain asymmetry was studied. The experiments were carried out on rabbits with electrodes implanted in the brain. The electrodes under nembutal narcosis (40 mg/kg) were implanted strictly symmetrically into the bearing zone of the temporal cortex of the right and left hemispheres on its lateral surface, whereas the indifferent electrode was secured to the nasal bones of a rabbit's skull. The acoustic irritation was applied through earphones. As the acoustic irritation a sound click caused by a square-shaped pulse from an electronic stimulator with a frequency of 0.1-0.2 Hz was used; the click intensity was adjusted within the range of from 5 to 80 Db. The amplification of the taken-off biopotentials was effected on an electroencephalograph; the induced potentials were obtained by means of an analyzer. 100 experiments on 20 animals were thus conducted; the interval between experiments on one animal was 7 days. The amplitude and form of the induced potential were determined. The asymmetry factor (Kas) was calculated by the formula: [formula] Ar --amplitude of the induced potential of the […] hemisphere, μV;
(§5) A1 --amplitude of the induced potential of the left hemisphere.
(§6) The test preparations were administered hypodermally in the form of 0.5-1.5% aqueous solutions 20 minutes before the beginning of the measurements.

patients = assay: Clinical study on patients with memory disorders, compared to pyracetam; format: in vivo, human
Source text: The preparation according to the present invention was studied in clinics on 130 patients.
As regards diagnosis and sex the patients were distributed as follows:
skull-brain traumata with memory disturbance: 75 patients (52 men and 23 women)
Alzheimer's disease: 15 patients (3 men and 12 women)
Pick's disease: 5 patients (5 men)
Senile dementia: 15 patients (4 men and 11 women)
Vascular dementia (cerabral atero-sclerosis, hypertonic disease): 20 patients (7 men and 13 women)
In the group of patients with skull-brain trauma the patient's age varied from 17 to 60 years, in the other patients--from 52 to 75 years.
In addition to clinico-psychopathological methods of investigation, all the patients were subjected to neuropsychological studies during which specific tasks were offered them to solve. In doing so, the response was assessed against a 4-points scale: 3--maximally pronounced disorder, full or substantially full incapability to deal with the task set; 2--a medium degree of manifestation of the deficiency, solving the task with the experimentator's assistance; 1--minor errors, independent correction of mistakes; 0--lack of disturbances.
The treatment course duration is 30-60 days. In the case of an acute skull-brain trauma (65 patients) the treatment started 15-20 days after the moment of trauma and lasted for 20-30 days.
It is known that the function of memory has a complex brain organization and different zones of brains take part in its regulation. During the studies a multi-faceted assessment of the memory function was carried out; there were assessed: (1) mnestic component of the environmental orientation of a patient; (2) involuntary memory for current events; (3) intentional exo-experimental memory; (4) volume and soundness of audio-speaking memory; (5) volume and soundness of visual memory; (6) operative memory; (7) memory for knowledge acquired before the disease.

[4] = system: learning ability of rats in a shuttle chamber; assay: Active avoidance learning in a shuttle chamber, rats; format: in vivo, rat; settings: rats, hypodermally 100 mg/kg
Source text: as §1, §2, §3

[5] = system: rabbit's brain hemispheres; assay: Amplitude of induced potential in brain hemispheres (acoustic irritation); format: in vivo; settings: rabbits
Protocol: as §4, §5, §6

[6] = hypodermally 10 mg/kg, 12 day (retention)
[7] = hypodermally 30 mg/kg, 12 day (retention)
[8] = hypodermally 100 mg/kg, 1st day
[9] = hypodermally 100 mg/kg, 12 day (retention)
[10] = per os 30 mg/kg, 12 day (retention)
[11] = per os 100 mg/kg, 12 day (retention)

NC(=O)CN1CCCC1=O [Pyracetam, pyracetam]
% of knowledge retention [1]: 26%
Number of combinations till appearance of "learning criterion", I teaching [1]: 30.3 ± 2.5
Number of combinations till appearance of "learning criterion", II-checking of retention of knowledge [1]: 22.4 ± 2.1
Number of untaught animals in the group [1]: 9/20
learning and memory (in words) ([2]; hypodermally): improves learning, but not memory
% of avoidance reactions, group I ([2]; hypodermally 10 mg/kg, 1st day): 23%
% of avoidance reactions, group II ([2]; hypodermally 10 mg/kg, 1st day): 33%
% of avoidance reactions, group III ([2]; hypodermally 10 mg/kg, 1st day): 48%
% of avoidance reactions, group IV ([2]; hypodermally 10 mg/kg, 1st day): 52%
% of avoidance reactions, group V ([2]; hypodermally 10 mg/kg, 1st day): 60%
% of avoidance reactions, group VI ([2]; hypodermally 10 mg/kg, 1st day): 61%
% of avoidance reactions, group I [2, 6]: 60%
% of avoidance reactions, group II [2, 6]: 78%
% of avoidance reactions, group III [2, 6]: 80%
% of avoidance reactions, group IV [2, 6]: 79%
% of avoidance reactions, group V [2, 6]: 80%
% of avoidance reactions, group VI [2, 6]: 78%
% of avoidance reactions, group I ([2]; hypodermally 30 mg/kg, 1st day): 20%
% of avoidance reactions, group II ([2]; hypodermally 30 mg/kg, 1st day): 32%
% of avoidance reactions, group III ([2]; hypodermally 30 mg/kg, 1st day): 55%
% of avoidance reactions, group IV ([2]; hypodermally 30 mg/kg, 1st day): 67%
% of avoidance reactions, group V ([2]; hypodermally 30 mg/kg, 1st day): 70%
% of avoidance reactions, group VI ([2]; hypodermally 30 mg/kg, 1st day): 75%
% of avoidance reactions, group I [2, 7]: 60%
% of avoidance reactions, group II [2, 7]: 80%
% of avoidance reactions, group III [2, 7]: 82%
% of avoidance reactions, group IV [2, 7]: 81%
% of avoidance reactions, group V [2, 7]: 84%
% of avoidance reactions, group VI [2, 7]: 88%
% of avoidance reactions, group I [2, 8]: 24%
% of avoidance reactions, group II [2, 8]: 41%
% of avoidance reactions, group III [2, 8]: 55%
% of avoidance reactions, group IV [2, 8]: 70%
% of avoidance reactions, group V [2, 8]: 72%
% of avoidance reactions, group VI [2, 8]: 74%
% of avoidance reactions, group I [2, 9]: 62%
% of avoidance reactions, group II [2, 9]: 90%
% of avoidance reactions, group III [2, 9]: 92%
% of avoidance reactions, group IV [2, 9]: 90%
% of avoidance reactions, group V [2, 9]: 90%
% of avoidance reactions, group VI [2, 9]: 92%
effect upon per os administration (in words) ([2]; per os): the effect is noticeably reduced
% of avoidance reactions, group I ([2]; per os 30 mg/kg, 1st day): 11%
% of avoidance reactions, group II ([2]; per os 30 mg/kg, 1st day): 17%
% of avoidance reactions, group III ([2]; per os 30 mg/kg, 1st day): 31%
% of avoidance reactions, group IV ([2]; per os 30 mg/kg, 1st day): 32%
% of avoidance reactions, group V ([2]; per os 30 mg/kg, 1st day): 33%
% of avoidance reactions, group VI ([2]; per os 30 mg/kg, 1st day): 40%
% of avoidance reactions, group I [2, 10]: 48%
% of avoidance reactions, group II [2, 10]: 70%
% of avoidance reactions, group III [2, 10]: 71%
% of avoidance reactions, group IV [2, 10]: 78%
% of avoidance reactions, group V [2, 10]: 78%
% of avoidance reactions, group VI [2, 10]: 81%
% of avoidance reactions, group I ([2]; per os 100 mg/kg, 1st day): 21%
% of avoidance reactions, group II ([2]; per os 100 mg/kg, 1st day): 22%
% of avoidance reactions, group III ([2]; per os 100 mg/kg, 1st day): 32%
% of avoidance reactions, group IV ([2]; per os 100 mg/kg, 1st day): 42%
% of avoidance reactions, group V ([2]; per os 100 mg/kg, 1st day): 43%
% of avoidance reactions, group VI ([2]; per os 100 mg/kg, 1st day): 52%
% of avoidance reactions, group I [2, 11]: 69%
% of avoidance reactions, group II [2, 11]: 80%
% of avoidance reactions, group III [2, 11]: 82%
% of avoidance reactions, group IV [2, 11]: 79%
% of avoidance reactions, group V [2, 11]: 78%
% of avoidance reactions, group VI [2, 11]: 78%
asymmetry factor (in words) [3]: failed to influence all these characteristics
Asymmetry factor, Preparation ([3]; hypodermally 100 mg/kg, control 0.19 ± 0.03): 0.213 ± 0.05
effect on the functional symmetry of the brain and activity of the dominating hemisphere (patients; experimental and clinical studies): no such effect
character of recovery (in words) (patients; patients): uniform regression of all available disorders
Number of combinations to reach the "learning criterion" in II teaching series (after 7 days) [4]: 4.7 ± 0.9
Number of combinations to reach the "learning criterion" in the I teaching series [4]: 20.8 ± 1.2
Number of non-taught animals in the group [4]: 1/20
Percentage knowledge retention [4]: 70%
amplitude of induced potentials (in words) [5]: failed to influence all these characteristics
